The values below come from PMC4774911, “Biochemical Screening of Five Protein Kinases from Plasmodium falciparum against 14,000 Cell-Active Compounds” (PLoS ONE, 2016).

Assay in all cases: biochemical
Holding throughout (design): endogenous in cells; host or cells: K562 cell extract; species or system K562 (extract); replicate k of n = 2 (each experiment ID is one independent experiment; two experiment IDs per compound)
What all share (details): read-out: KDapp

One test deals with T1, IKBKE (Homo sapiens, UniProt Q14164).
T1 sequence (Q14164 1-716): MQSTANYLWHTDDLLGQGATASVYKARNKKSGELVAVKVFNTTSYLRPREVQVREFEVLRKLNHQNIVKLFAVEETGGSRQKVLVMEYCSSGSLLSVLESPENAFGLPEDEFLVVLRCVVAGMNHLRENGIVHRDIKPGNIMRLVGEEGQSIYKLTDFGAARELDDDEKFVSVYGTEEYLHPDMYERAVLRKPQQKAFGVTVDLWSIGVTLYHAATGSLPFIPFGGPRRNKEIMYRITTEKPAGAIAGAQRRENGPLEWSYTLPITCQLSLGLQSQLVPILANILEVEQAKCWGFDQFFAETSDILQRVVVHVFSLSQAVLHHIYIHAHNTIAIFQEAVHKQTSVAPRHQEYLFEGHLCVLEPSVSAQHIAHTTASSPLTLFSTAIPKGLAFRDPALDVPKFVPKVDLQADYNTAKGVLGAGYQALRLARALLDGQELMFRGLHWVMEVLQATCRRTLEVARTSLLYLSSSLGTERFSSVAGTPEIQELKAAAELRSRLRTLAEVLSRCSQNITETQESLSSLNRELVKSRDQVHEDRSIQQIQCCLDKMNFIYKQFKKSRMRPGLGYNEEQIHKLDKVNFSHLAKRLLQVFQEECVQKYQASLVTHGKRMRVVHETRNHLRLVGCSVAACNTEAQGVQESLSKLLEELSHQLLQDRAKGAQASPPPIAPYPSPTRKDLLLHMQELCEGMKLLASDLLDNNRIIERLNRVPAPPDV

The target of the next test is T2, NEK9 (Homo sapiens, UniProt Q8TD19).
T2 sequence (Q8TD19 1-979): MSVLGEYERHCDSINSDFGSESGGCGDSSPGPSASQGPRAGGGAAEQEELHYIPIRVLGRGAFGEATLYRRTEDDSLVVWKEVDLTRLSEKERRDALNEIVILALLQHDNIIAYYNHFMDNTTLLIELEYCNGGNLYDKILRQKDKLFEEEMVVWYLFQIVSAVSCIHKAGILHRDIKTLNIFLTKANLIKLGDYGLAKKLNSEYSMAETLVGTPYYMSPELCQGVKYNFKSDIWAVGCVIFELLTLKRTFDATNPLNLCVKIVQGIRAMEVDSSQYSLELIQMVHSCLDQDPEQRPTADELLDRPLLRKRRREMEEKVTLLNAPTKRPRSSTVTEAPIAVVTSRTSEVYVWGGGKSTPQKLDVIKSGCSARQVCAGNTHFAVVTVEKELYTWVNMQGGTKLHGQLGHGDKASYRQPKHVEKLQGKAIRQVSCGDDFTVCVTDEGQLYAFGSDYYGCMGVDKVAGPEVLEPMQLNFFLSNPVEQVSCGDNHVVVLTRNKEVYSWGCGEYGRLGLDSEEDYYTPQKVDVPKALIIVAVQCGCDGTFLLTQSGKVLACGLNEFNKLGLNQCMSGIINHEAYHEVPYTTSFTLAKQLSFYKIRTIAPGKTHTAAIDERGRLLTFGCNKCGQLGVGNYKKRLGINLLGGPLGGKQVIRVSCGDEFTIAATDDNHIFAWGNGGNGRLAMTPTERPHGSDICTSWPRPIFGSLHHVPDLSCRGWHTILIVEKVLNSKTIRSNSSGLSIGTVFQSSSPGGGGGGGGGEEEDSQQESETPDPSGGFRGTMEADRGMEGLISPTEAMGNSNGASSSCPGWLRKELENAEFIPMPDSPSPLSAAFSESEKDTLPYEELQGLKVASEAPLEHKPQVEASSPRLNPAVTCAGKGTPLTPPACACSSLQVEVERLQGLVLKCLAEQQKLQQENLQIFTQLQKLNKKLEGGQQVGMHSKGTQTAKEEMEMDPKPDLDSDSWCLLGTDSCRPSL

Another test deals with T3, MARK4 (Homo sapiens, UniProt Q96L34).
T3 sequence (Q96L34 1-752): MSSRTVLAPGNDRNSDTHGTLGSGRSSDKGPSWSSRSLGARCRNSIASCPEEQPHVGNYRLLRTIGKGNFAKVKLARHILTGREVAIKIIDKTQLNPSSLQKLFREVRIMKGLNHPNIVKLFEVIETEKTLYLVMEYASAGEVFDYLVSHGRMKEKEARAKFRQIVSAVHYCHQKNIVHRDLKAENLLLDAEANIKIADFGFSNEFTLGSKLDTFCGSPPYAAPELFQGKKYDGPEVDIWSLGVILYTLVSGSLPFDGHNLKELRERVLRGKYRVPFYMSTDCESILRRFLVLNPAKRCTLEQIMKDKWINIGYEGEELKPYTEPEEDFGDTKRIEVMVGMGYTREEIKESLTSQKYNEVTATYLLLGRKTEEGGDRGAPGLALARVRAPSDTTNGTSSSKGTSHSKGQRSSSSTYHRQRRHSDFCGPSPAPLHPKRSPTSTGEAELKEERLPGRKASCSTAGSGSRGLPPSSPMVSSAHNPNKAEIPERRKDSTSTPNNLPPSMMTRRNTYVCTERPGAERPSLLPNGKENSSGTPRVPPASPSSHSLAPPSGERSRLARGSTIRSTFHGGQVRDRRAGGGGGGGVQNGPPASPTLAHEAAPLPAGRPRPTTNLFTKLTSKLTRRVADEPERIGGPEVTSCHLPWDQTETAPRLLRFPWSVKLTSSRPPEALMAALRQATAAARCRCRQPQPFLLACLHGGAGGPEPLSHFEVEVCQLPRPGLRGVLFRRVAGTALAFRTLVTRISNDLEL

SMILES strings stand for the structures. “And” between values parts separate entries of the source, which are not always exact repeats. Identical values can stand only once.

For `CN1CCN(c2ccc(Nc3ncc(C#N)c(Nc4ccccc4C(N)=O)n3)cc2)CC1.Cl` [TCMDC-134116], the Kd at IKBKE is 0.954 µM; on NEK9, 0.396 µM and 0.299 µM.
With `CN(C)CC(O)COc1ccc(Nc2ncc([N+](=O)[O-])c(Nc3ccccc3O)n2)cc1.O=C(O)C(F)(F)F` (stereo not drawn) [TCMDC-141399], the Kd on MARK4 is 6.16 µM and 3.9 µM.
